The experiment in a line: Wnt APC Inhibition Assay: Reporter cell lines can be generated by stably transducing cells of cancer cell lines (e.g., colon cancer) with a lentiviral construct that include a wnt-responsive promoter driving expression of the firefly luciferase gene.Lentiviral constructs can be made in which the SP5 promoter, a promoter having eight TCF/LEF binding sites derived from the SP5 promoter, is linked upstream of the firefly luciferase gene. The lentiviral constructs can also include a hygromycin resistance gene as a selectable marker. The SP5 promoter construct can be used to transduce SW480 cells, a colon cancer cell line having a mutated APC gene that generates a truncated APC protein, leading to de-regulated accumulation of β-catenin. […] Compounds from a small molecule compound library can then be added to the wells in half-log dilutions using a ten micromolar top concentration. A series of control wells for each cell type receive only buffer and compound solvent. Twenty-four to forty hours after the addition of compound, reporter activity for luciferase can be assayed, for example, by addition of the BrightGlo luminescence reagent (Promega) and the Victor3 plate reader (Perkin Elmer). Readings can be normalized to DMSO only treated cells, and normalized activities can then be used in the IC50 calculations.

“And” between values parts separate entries of the source, which are not always exact repeats. Equal values may be shown once.

As for `CC(C)(C)C(=O)Nc1cncc(-c2cnc3[nH]nc(-c4nc5c(-c6cccc(F)c6)cncc5[nH]4)c3c2)c1`, the IC50 is 38 nM and 6 nM.

One may read the IC50 as the concentration that inhibits the measured activity by half.

Values taken from ChEMBL document CHEMBL5725609, “1H-pyrazolo[3,4-b]pyridines and therapeutic uses thereof” (2018).
